Where two headings read alike, the source gives them in different places.
Assays:
Type in all cases: in vitro ADME
CYP2C9 = target: T1, CYP2C9 (Homo sapiens, UniProt P11712); assay: Cytochrome P450 inhibition, CYP2C9; details: Supersomes; read-out: IC50 (μM) 2C9
T1 construct: purchased BD Gentest, Becton-Dickinson (Supersomes); host or cells: insect cells (microsomes)
From the text: (§1) F. Assay for Cytochrome P450 Inhibition
(§2) Cytochrome P450 enzymes are implicated in the phase I metabolism of drugs. The majority of drug-drug interactions are metabolism-based and, moreover, these interactions typically involve inhibition of cytochrome P450s. Six CYP450 enzymes (CYP1A2, CYP2C8, CYP2C9, CYP2C19, CYP2D6 and CYP3A4) appear to be commonly responsible for the metabolism of most drugs and the associated drug-drug interactions. Assays to determine the binding of compounds of the invention to the various metabolically important isoforms of cytochrome P450 metabolizing enzymes are commercially available, for example NoAb BioDiscoveries (Mississaugua, ON, Canada) and Absorption Systems (Exton, Pa., USA). As well, a number of appropriate methods have been described or reviewed in the literature. (White, R. E. Ann. Rev. Pharmacol. Toxicol. 2000, 40, 133-157; Li, A. P. Drug. Disc. Today 2001, 6, 357-366; Turpeinen, M.; Korhonen, L. E. Tolonen, A.; et al. Eur. J. Pharm. Sci. 2006, 29, 130-138.)
(§3) The concentration of the inhibitor or test compound that inhibited metabolite formation by 50% (IC50) was calculated by non-linear regression analysis of the % inhibition vs. log concentration (M) curve.

CYP2A6 = target: T2, CYP2A6 (Homo sapiens, UniProt P11509); assay: Cytochrome P450 inhibition, CYP2A6; details: Supersomes; read-out: IC50 (μM) 2A6
T2 construct: purchased BD Gentest, Becton-Dickinson (Supersomes); host or cells: insect cells (microsomes)
T2 sequence (P11509 1-494): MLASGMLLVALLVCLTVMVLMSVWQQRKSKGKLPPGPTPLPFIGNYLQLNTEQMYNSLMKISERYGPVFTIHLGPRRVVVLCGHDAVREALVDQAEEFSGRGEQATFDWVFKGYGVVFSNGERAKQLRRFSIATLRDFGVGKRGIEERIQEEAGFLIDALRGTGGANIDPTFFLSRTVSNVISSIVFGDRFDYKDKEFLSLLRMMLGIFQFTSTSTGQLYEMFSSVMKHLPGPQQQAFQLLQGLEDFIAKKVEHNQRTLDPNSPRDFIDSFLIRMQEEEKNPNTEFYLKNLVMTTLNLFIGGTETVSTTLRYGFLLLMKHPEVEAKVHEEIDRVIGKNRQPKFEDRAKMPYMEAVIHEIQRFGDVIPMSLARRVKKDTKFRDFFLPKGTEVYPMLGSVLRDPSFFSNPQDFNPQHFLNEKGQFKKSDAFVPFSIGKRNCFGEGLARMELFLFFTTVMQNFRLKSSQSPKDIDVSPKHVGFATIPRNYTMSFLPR
From the text: as §1, §2, §3

CYP1A2 = target: T3, CYP1A2 (Homo sapiens, UniProt P05177); assay: Cytochrome P450 inhibition, CYP1A2; details: Supersomes; read-out: IC50 (μM) 1A2
T3 construct: purchased BD Gentest, Becton-Dickinson (Supersomes); host or cells: insect cells (microsomes)
T3 sequence (P05177 1-516): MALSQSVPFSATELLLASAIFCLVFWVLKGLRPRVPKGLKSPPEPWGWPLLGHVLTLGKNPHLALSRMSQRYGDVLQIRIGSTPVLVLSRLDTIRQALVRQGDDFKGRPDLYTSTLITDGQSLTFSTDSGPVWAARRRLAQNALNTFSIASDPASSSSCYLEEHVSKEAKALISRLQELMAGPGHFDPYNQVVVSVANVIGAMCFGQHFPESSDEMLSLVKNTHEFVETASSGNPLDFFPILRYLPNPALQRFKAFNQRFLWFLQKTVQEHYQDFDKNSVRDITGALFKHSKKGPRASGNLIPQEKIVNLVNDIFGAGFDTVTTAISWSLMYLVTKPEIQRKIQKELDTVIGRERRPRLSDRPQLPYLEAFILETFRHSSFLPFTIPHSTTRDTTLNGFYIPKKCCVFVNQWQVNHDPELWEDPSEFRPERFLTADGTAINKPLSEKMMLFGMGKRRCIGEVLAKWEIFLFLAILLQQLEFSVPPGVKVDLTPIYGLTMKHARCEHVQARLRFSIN
From the text: as §1, §2, §3

CYP2E1 = target: T4, CYP2E1 (Homo sapiens, UniProt P05181); assay: Cytochrome P450 inhibition, CYP2E1; details: Supersomes; read-out: IC50 (μM) 2E1
T4 construct: purchased BD Gentest, Becton-Dickinson (Supersomes); host or cells: insect cells (microsomes)
From the text: as §1, §2, §3

CYP2C19 = target: T5, CYP2C19 (Homo sapiens, UniProt P33261); assay: Cytochrome P450 inhibition, CYP2C19; details: Supersomes; read-out: IC50 (μM) 2C19
T5 construct: purchased BD Gentest, Becton-Dickinson (Supersomes); host or cells: insect cells (microsomes)
From the text: as §1, §2, §3

CYP3A4 = target: T6, CYP3A4 (Homo sapiens, UniProt P08684); assay: Cytochrome P450 inhibition, CYP3A4; details: Supersomes
T6 construct: purchased BD Gentest, Becton-Dickinson (Supersomes); host or cells: insect cells (microsomes)
From the text: as §1, §2, §3

CYP2B6 = target: T7, CYP2B6 (Homo sapiens, UniProt P20813); assay: Cytochrome P450 inhibition, CYP2B6; details: Supersomes; read-out: IC50 (μM) 2B6
T7 construct: purchased BD Gentest, Becton-Dickinson (Supersomes); host or cells: insect cells (microsomes)
T7 sequence (P20813 1-491): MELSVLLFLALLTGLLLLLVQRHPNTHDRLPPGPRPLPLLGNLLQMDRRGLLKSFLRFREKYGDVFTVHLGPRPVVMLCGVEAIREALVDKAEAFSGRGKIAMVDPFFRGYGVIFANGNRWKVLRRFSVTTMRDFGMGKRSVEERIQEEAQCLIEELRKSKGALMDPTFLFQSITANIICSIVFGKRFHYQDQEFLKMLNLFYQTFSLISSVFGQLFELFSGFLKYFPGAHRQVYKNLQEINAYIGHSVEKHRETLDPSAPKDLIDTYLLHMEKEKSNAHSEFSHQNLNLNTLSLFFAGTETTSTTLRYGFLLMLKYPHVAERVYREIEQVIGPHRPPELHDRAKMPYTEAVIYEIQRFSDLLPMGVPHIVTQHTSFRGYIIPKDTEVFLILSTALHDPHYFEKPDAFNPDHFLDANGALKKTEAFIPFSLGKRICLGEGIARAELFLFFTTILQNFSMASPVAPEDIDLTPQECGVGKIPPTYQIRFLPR
From the text: as §1, §2, §3

[1] = substrate BFC, read-out: IC50 (μM) 3A4 (BFC)
[2] = substrate BQ, read-out: IC50 (μM) 3A4 (BQ)

T6 sequence (P08684 whole entry): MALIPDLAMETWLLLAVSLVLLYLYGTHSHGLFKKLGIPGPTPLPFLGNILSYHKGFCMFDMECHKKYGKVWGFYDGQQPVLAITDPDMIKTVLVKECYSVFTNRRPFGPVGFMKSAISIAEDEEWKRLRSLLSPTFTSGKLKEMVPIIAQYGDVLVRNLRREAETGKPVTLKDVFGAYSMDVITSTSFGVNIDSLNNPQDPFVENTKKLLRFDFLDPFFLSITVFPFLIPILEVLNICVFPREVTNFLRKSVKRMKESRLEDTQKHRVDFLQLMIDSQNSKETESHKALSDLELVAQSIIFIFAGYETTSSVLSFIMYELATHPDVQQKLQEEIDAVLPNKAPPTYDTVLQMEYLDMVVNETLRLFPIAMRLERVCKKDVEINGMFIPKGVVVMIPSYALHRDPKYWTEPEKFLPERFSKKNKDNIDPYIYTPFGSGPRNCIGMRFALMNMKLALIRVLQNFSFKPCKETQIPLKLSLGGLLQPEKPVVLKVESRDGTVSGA
T5 sequence (P33261 whole entry): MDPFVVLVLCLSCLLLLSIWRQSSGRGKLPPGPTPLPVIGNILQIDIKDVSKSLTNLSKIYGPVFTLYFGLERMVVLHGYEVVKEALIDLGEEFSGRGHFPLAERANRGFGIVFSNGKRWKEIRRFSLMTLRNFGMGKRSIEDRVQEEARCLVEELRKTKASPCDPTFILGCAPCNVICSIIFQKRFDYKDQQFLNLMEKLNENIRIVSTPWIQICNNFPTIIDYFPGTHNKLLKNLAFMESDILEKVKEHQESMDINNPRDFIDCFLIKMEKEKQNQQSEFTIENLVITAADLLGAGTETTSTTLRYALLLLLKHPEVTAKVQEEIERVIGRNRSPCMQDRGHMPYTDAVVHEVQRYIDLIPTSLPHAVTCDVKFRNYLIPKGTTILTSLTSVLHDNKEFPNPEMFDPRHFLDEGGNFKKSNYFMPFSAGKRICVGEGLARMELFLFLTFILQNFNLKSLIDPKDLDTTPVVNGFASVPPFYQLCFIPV
T1 sequence (P11712 whole entry): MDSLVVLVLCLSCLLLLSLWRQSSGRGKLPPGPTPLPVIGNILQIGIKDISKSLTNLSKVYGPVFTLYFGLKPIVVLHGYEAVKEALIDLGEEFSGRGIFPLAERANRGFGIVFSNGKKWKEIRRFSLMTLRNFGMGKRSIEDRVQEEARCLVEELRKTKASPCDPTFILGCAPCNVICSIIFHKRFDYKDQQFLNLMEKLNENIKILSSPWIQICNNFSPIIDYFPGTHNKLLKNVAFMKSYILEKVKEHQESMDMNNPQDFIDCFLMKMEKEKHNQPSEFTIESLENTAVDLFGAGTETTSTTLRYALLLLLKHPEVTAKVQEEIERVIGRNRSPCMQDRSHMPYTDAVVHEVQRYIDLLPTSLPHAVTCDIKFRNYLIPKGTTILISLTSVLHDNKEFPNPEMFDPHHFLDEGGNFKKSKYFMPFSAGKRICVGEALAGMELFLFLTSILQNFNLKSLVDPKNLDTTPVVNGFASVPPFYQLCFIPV
T4 sequence (P05181 whole entry): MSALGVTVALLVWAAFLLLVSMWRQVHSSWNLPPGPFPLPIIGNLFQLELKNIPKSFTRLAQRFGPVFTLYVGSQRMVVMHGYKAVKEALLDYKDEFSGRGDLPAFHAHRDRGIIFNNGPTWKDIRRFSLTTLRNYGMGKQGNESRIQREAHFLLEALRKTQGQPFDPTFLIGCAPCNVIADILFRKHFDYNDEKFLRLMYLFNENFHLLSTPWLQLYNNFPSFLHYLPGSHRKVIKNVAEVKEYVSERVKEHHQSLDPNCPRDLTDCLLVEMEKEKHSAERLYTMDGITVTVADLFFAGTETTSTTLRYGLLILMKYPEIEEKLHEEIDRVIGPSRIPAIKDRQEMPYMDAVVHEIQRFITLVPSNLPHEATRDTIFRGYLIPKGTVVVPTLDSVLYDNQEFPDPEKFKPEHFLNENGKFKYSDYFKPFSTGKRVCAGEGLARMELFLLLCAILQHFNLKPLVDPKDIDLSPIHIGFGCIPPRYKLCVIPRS

SMILES | IC50 (CYP2C9) | IC50 (CYP2A6) | IC50 (CYP1A2) | IC50 (CYP2E1) | IC50 (CYP2C19) | IC50 (CYP3A4; [1]) | IC50 (CYP3A4; [2]) | IC50 (CYP2B6)
CCC[C@@H]1NC(=O)[C@@H](C(C)C)NC(=O)[C@@H](Cc2cccc(F)c2)N[C@@H](C)COc2ccccc2CCCNC1=O [Compound 551] | 26.9 µM | > 100 µM | > 100 µM | > 100 µM | 37 µM | 2.37 µM | 10.4 µM | > 100 µM
CCC[C@@H]1NC(=O)[C@@H](C(C)C)NC(=O)[C@@H](Cc2ccc(O)c(C(C)(C)C)c2)NCCOc2ccccc2CCCNC1=O [Compound 553] | 44.5 µM | > 100 µM | > 100 µM | > 100 µM | > 100 µM | 0.0192 µM | 3.48 µM | > 100 µM

Reference: patent publication US9133235B2, “Macrocyclic antagonists of the motilin receptor for treatment of gastrointestinal dysmotility disorders” (Ocera Therapeutics, Inc., priority 2006, dated 2015)
